The values that follow are results of earlier work, collected in paper PMC9291711, “PLGA-modified Syloid®-based microparticles for the ocular delivery of terconazole: in-vitro and in-vivo investigations” (Drug Delivery, 2022).

In general, log P refers to a log measure of how a compound divides between an organic and an aqueous phase.

For this data set the following is noted: stated without reference.

The structures appear in SMILES notation.

As for `CC(C)N1CCN(c2ccc(OCC3COC(Cn4cncn4)(c4ccc(Cl)cc4Cl)O3)cc2)CC1` (centres unmarked) [Terconazole, terconazole], the Pka was 8 and the “log P” value is given as 5.37.
